Measurements as given in ChEMBL document CHEMBL5233249, “Recent advancements in the development of heterocyclic anti-inflammatory agents” (Eur J Med Chem, 2020).
pIC50: −log10 of the molar value.

Columns and labels:
RAW264.7 [1] = assay: Anti-inflammatory activity in mouse RAW264.7 cells assessed as inhibition of LPS-induced IL-6 production incubated for 1 hr by EIA relative to control; type: functional
[2] = molecular target: T1, Prostaglandin G/H synthase 2 (Homo sapiens, UniProt P35354); assay: Inhibition of human recombinant COX-2 at 1 uM
T1 sequence (P35354 whole entry): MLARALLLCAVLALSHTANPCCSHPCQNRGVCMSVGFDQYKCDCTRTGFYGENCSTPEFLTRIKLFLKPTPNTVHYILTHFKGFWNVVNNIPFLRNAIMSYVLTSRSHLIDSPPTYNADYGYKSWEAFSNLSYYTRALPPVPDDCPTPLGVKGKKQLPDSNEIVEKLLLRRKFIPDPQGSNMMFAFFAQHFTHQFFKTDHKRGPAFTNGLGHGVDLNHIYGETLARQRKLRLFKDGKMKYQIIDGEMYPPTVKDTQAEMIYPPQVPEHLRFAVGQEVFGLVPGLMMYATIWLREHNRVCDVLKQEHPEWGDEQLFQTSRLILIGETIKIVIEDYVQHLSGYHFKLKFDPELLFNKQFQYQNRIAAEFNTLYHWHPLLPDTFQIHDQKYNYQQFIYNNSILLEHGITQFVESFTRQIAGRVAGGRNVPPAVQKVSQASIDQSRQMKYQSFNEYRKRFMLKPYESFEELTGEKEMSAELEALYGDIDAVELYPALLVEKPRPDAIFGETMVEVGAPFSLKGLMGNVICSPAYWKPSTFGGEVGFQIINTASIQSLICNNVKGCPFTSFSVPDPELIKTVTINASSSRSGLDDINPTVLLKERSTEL

[3] = molecular target: T2, Prostaglandin G/H synthase 1 (Ovis aries, UniProt P05979); assay: Inhibition of ovine COX-1 at 1 uM
T2 sequence (P05979 whole entry): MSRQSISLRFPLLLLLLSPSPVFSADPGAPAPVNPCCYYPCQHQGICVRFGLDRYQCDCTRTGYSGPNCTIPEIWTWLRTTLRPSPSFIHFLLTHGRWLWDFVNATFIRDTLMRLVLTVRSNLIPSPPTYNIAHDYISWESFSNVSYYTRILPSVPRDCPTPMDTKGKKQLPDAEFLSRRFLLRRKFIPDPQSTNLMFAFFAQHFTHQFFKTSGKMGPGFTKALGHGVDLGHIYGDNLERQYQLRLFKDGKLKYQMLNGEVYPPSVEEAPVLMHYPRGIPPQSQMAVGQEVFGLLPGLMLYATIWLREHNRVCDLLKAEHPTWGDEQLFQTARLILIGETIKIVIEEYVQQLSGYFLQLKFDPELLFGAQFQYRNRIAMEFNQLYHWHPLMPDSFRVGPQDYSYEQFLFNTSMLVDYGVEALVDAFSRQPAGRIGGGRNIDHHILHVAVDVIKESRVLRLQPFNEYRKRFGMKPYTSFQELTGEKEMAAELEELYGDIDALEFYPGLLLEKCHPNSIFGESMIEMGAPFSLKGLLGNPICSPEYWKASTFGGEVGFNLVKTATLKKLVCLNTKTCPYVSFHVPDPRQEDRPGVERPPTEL

[4] = molecular target: T3, Polyunsaturated fatty acid lipoxygenase ALOX15 (Homo sapiens, UniProt P16050); assay: Inhibition of LOX (unknown origin) at 1 uM
T3 sequence (P16050 whole entry): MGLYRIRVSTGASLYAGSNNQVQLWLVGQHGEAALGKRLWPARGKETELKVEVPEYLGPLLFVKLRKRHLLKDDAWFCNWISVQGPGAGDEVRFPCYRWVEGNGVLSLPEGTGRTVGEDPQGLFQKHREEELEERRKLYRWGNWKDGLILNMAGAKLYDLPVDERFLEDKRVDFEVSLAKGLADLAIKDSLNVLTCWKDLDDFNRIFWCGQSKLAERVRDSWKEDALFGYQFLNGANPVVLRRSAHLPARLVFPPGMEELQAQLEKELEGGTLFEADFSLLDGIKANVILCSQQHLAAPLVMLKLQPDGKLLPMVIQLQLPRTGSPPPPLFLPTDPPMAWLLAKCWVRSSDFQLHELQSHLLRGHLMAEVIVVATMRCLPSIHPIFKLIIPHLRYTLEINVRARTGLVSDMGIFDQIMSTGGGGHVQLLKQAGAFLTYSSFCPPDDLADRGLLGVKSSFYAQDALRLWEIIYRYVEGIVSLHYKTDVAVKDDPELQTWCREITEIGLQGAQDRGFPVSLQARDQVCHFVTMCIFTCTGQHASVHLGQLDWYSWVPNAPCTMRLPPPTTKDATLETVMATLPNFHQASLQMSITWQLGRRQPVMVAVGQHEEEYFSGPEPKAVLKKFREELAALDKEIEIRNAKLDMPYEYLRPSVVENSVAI

RAW264.7 [5] = assay: Anti-inflammatory activity in mouse RAW264.7 cells assessed as inhibition of LPS-induced TNFalpha production incubated for 1 hr by EIA relative to control; type: functional
Rattus norvegicus [6] = assay: Anti-inflammatory activity against Carrageenan-induced paw edema in PO dosed Wistar albino rat assessed as inhibition of edema measured after 3 hr relative to control; type: functional; set-up: scale not given: the % may be the effect or the level left
Erythrocyte = assay: Anti-inflammatory activity in human red blood cells assessed as stabilization of cell membrane; type: functional, cell-based
Rattus norvegicus [7] = assay: Anti-inflammatory activity in Carrageenan-induced paw edema in PO dosed rat model at 30 mg/kg measured after 4 hrs relative to control; type: functional
Mus musculus [8] = assay: Anti-inflammatory activity against Carrageenan-induced paw edema in mouse model assessed as reduction of edema at 50 mg/kg measured after 4 hrs relative to control; type: functional; set-up: scale not given: the % may be the effect or the level left
[9] = Anti-inflammatory activity assessed using bovine serum albumin/egg albumin proteins assessed as protein denaturation measured at 95 degC for 20 mins by measuring turbidity by UV-Vis spectrophotometer; type: functional
Rattus norvegicus [10] = assay: Anti-inflammatory activity in Carrageenan-induced rat paw edema in Wistar rat assessed as reduction in inhibition of edema measured after 4 hrs relative to control; type: functional; set-up: scale not given: the % may be the effect or the level left
Rattus norvegicus [11] = assay: Anti-inflammatory activity against formalin-induced foot paw edema in PO dosed rat at 10 mg/kg assessed as inhibition of edema measured after 4 hr relative to control; type: functional
Rattus norvegicus [12] = assay: Anti-inflammatory activity in Carrageenan-induced paw edema in Wistar albino rat assessed as reduction in paw edema measured after 1 hr relative to control; type: functional; set-up: scale not given: the % may be the effect or the level left
Rattus norvegicus [13] = assay: Anti-ulcerative activity in aspirin induced Wistar rat ulcer model assessed as inhibition of ulcer index at 20 mg/kg,po; type: functional
Rattus norvegicus [14] = assay: Anti-inflammatory activity against Carrageenan-induced paw edema in PO dosed Wistar albino rat assessed as inhibition of edema measured after 2 hr relative to control; type: functional; set-up: scale not given: the % may be the effect or the level left
Rattus norvegicus [15] = assay: Anti-inflammatory activity in Carageenan-induced foot paw edema in Swiss albino rat assessed as reduction in volume of paw edema measured after 2 hr relative to control; type: functional; set-up: scale not given: the % may be the effect or the level left
Rattus norvegicus [16] = assay: Anti-inflammatory activity against Carrageenan-induced paw edema in Wistar albino rat ulcerogenic activity assessed as reduction in severity index; type: functional
Rattus norvegicus [17] = assay: Anti-inflammatory activity in Carageenan-induced paw edema Wistar rat model assessed as reduction in paw edema volume relative to control; type: functional; set-up: scale not given: the % may be the effect or the level left
Rattus norvegicus [18] = assay: Anti-inflammatory activity in Carrageenan-induced paw edema in Wistar albino rat assessed as inhibition of edema measured after 3 hrs relative to control; type: functional
Rattus norvegicus [19] = assay: Anti-inflammatory activity in Carageenan-induced foot paw edema in Swiss albino rat assessed as reduction in volume of paw edema measured after 4 hr relative to control; type: functional; set-up: scale not given: the % may be the effect or the level left
Rattus norvegicus [20] = assay: Anti-inflammatory activity in Carrageenan-induced paw edema in PO dosed Swiss albino rat model at 30 mg/kg assessed as inhibition in volume of edema measured after 1 hrs relative to control; type: functional
Rattus norvegicus [21] = assay: Anti-inflammatory activity in Carrageenan-induced paw edema in Wistar albino rat assessed as reduction in paw edema measured after 3 hr relative to control; type: functional; set-up: scale not given: the % may be the effect or the level left
Rattus norvegicus [22] = assay: Anti-inflammatory activity in Carageenan-induced foot paw edema in Swiss albino rat assessed as reduction in volume of paw edema measured after 6 hr relative to control; type: functional; set-up: scale not given: the % may be the effect or the level left
Rattus norvegicus [23] = assay: Anti-inflammatory activity in Carageenan-induced foot paw edema in Swiss albino rat assessed as reduction in volume of paw edema measured after 1 hr relative to control; type: functional; set-up: scale not given: the % may be the effect or the level left
Rattus norvegicus [24] = assay: Anti-inflammatory activity in Carrageenan-induced paw edema in Wistar albino rat assessed as reduction in paw edema measured after 2 hr relative to control; type: functional; set-up: scale not given: the % may be the effect or the level left
Rattus norvegicus [25] = assay: Anti-inflammatory activity against Carrageenan-induced paw edema in PO dosed Wistar albino rat assessed as inhibition of edema measured after 4 hr relative to control; type: functional; set-up: scale not given: the % may be the effect or the level left
Rattus norvegicus [26] = assay: Anti-inflammatory activity against Carrageenan-induced paw edema in PO dosed Wistar albino rat assessed as inhibition of edema measured after 1 hr relative to control; type: functional; set-up: scale not given: the % may be the effect or the level left
Mus musculus [27] = assay: Anti-inflammatory activity in Carrageenan-induced paw edema in PO dosed mouse at 100 mg/kg assessed as inhibition of edema measured after 3 hr relative to control; type: functional; set-up: scale not given: the % may be the effect or the level left
THP-1 = assay: Anti-inflammatory activity in human THP-1 cells assessed as inhibition in IL-1beta release at 30 uM relative to control; type: functional; set-up: scale not given: the % may be the effect or the level left

COc1ccc(-c2nc3c(C(N)=O)cccc3[nH]2)cc1
inhibition (INH) (RAW264.7 [1]): 91% | pIC50 [2]: 4.94 | pIC50 [3]: 6.01 | pIC50 [4]: 5.02 | inhibition (INH) (RAW264.7 [5]): 91%

O=C([O-])Cc1ccccc1Nc1c(Cl)cccc1Cl.[Na+] [DICLOFENAC SODIUM]
Activity (Rattus norvegicus [6]): 60.82% | EC50 (Erythrocyte): 11.7 µg/mL | inhibition in vivo at 30 mg/kg (Rattus norvegicus [7]): 93% | Activity (Mus musculus [8]): 76.25% | IC50 [9]: 54.65 µg/mL | Activity (Rattus norvegicus [10]): 78.05% | inhibition in vivo at 10 mg/kg (Rattus norvegicus [11]): 92.9%

COc1ccc2c(c1)c(CC(=O)O)c(C)n2C(=O)c1ccc(Cl)cc1 [INDOMETHACIN]
Activity (Rattus norvegicus [12]): 33.15% | UI (Rattus norvegicus [13]): 20.2 | Activity (Rattus norvegicus [14]): 28.89% | Activity (Rattus norvegicus [15]): 56.8% | Activity (Rattus norvegicus [16]): 1.96 mm | Activity (Rattus norvegicus [17]): 79.41% | inhibition (INH) (Rattus norvegicus [18]): 86.7% | Activity (Rattus norvegicus [19]): 74.56% | inhibition in vivo at 30 mg/kg (Rattus norvegicus [20]): 71.2% | Activity (Rattus norvegicus [21]): 57.79% | Activity (Rattus norvegicus [22]): 85.9% | Activity (Rattus norvegicus [23]): 43.3% | Activity (Rattus norvegicus [24]): 50.81% | Activity (Rattus norvegicus [25]): 30.95% | Activity (Rattus norvegicus [26]): 40% | Activity (Mus musculus [27]): 47.76%

c1cc2[nH]c(-c3cscn3)nc2cn1
Activity (THP-1): 40%
